Experimental data: patent US6521627B1, “5-Iodo-4-phenethylaminopyrimidine derivative, intermediate thereof, processes for producing the same and agricultural and horticultural pesticides” (UBE Industries, Ltd., priority 1998, dated 2003)

Assays:
[1] = system: tobacco cutworm; test: Test of effect on tobacco cutworm; type: in vivo, tobacco cutworm (2nd instar larvae); details: wettable powder diluted to 500 ppm; soybean leaves dipped for 30 seconds; 25° C., after 2 days
Experimental: (6) Test of effect on tobacco cutworm The respective wettable powders of Compounds (1) shown in Table 2 prepared as in Example 3 were diluted to 500 ppm with water containing a surfactant (0.01%), and in these respective chemical solutions, leave of soybean were dipped for 30 seconds. After air-drying, each of the leave was put into the respective plastic cups, 10 tobacco cutworm (2nd instar larvae) were placed in the respective cups, and put the lids on them and they were left to stand in a thermostat chamber at 25° C. After 2 days, insecticidal rate was determined by counting living and dead insects in the respective cups.

[2] = system: southern root knot nematodes; test: Test of effect on southern root knot nematodes; type: in vivo, southern potato root knot nematodes; details: wettable powder diluted to 300 ppm, 0.1 ml plus 0.9 ml solution containing 500 nematodes; 25° C., after 2 days
Experimental: (1) Test of effect on southern root knot nematodes The respective wettable powders of Compounds (1) shown in Table 2 prepared as in Example 3 were diluted to 300 ppm with water, 0.1 ml of which is taken into the test tubes, and 0.9 ml of a solution containing 500 southern potato root knot nematodes was added thereto, respectively. Subsequently, these test tubes were left to stand in a thermostat chamber at 25° C., and after 2 days, nematodecidal rate was determined by observing with microscope.

[3] = system: green rice leafhopper; test: Test of effect on green rice leafhopper; type: in vivo, green rice leafhoppers (4th instar larvae); details: wettable powder diluted to 300 ppm; young seedlings of rice dipped for 30 seconds; 25° C., after 4 days
Experimental: (§1) (5) Test of effect on green rice leafhopper The respective wettable powders of Compounds (1) shown in Table 2 prepared as in Example 3 were diluted to 300 ppm with water containing a surfactant (0.01%), and in these respective chemical solutions, young seedlings of rice were dipped for 30 seconds, and after air-drying, each was put into the respective glass cylinders. Subsequently, 10 green rice leafhoppers (4th instar larvae) were placed in the respective glass cylinders, and porous stoppers were each placed on them and they were left to stand in a thermostat chamber at 25° C., and after 4 days, insecticidal rate was determined by counting living and dead insects in the respective cylinders.

[4] = system: diamondback moth; test: Test of effect on diamondback moth; type: in vivo, diamondback moths (3rd instar larvae); details: wettable powder diluted to 300 ppm; cabbage leaves dipped for 30 seconds; 25° C., after 2 days
Experimental: (3) Test of effect on diamondback moth The respective wettable powders of Compounds (1) shown in Table 2 prepared as in Example 3 were diluted to 300 ppm with water containing a surfactant (0.01%), and in these respective chemical solutions, cabbage leaves (5×5 cm) were dipped for 30 seconds, and each leaf was put into the respective plastic cups and air-dried. Subsequently, 10 diamondback moths (3rd instar larvae) were placed in the respective cups, and put the lids on them and they were left to stand in a thermostat chamber at 25° C., and after 2 days, insecticidal rate was determined by counting living and dead insects in the respective cups.

[5] = system: brown rice planthopper; test: Test of effect on brown rice planthopper; type: in vivo, brown rice planthoppers (4th instar larvae); details: wettable powder diluted to 300 ppm; young seedlings of rice dipped for 30 seconds; 25° C., after 4 days
Experimental: as §1, with “(4)” for “(5)”, “brown” for “green”, “planthopper” for “leafhopper”, “planthoppers” for “leafhoppers”

## CC(=O)OC(C)c1ncnc(NCCc2ccc(OC(F)(F)F)cc2)c1I (centres unmarked) [1-(21), 6-(1-acetoxyethyl)-5-iodo-4-[2-(4-trifluoromethoxyphenyl)ethylamino]pyrimidine]
other
  melting point: 77 to 79 °C

## CC(F)c1ncnc(NCCc2ccc(OC(F)(F)F)cc2)c1I (centres unmarked) [1-(23), 6-(1-fluoroethyl)-5-iodo-4-[2-(4-trifluoromethoxyphenyl)ethylamino]pyrimidine]
[1]
  insecticidal effect (insecticidal rate): 100%
[2]
  nematodecidal effect (nematodecidal rate): 100%
[3]
  insecticidal effect (insecticidal rate): 100%
[4]
  insecticidal effect (insecticidal rate): 100%
[5]
  insecticidal effect (insecticidal rate): 100%

## CC(F)c1ncnc(NCCc2ccccc2)c1I (centres unmarked) [Compound 1-(1), 6-(1-fluoroethyl)-5-iodo-4-(2-phenylethylamino)pyrimidine]
[2]
  nematodecidal effect (nematodecidal rate): 100%
[3]
  insecticidal effect (insecticidal rate): 100%
[4]
  insecticidal effect (insecticidal rate): 100%
[5]
  insecticidal effect (insecticidal rate): 100%

## CC(Cl)c1ncnc(NCCc2ccccc2)c1I (centres unmarked) [Compound 1-(2), 6-(1-chloroethyl)-5-iodo-4-(2-phenylethylamino)pyrimidine]
other
  melting point: 101 to 102 °C

## CC(=O)OC(C)c1ncnc(NCCc2ccccc2)c1I (stereo not drawn) [Compound 1-(3), 6-(l-acetoxyethyl)-5-iodo-4-(2-phenylethylamino)pyrimidine]
[4]
  insecticidal effect (insecticidal rate): 100%

## CC(F)c1ncnc(NCCc2ccc(F)cc2)c1I (centres unmarked) [Compound 1-(5), 6-(1-fluoroethyl)-5-iodo-4-[2-(4-fluorophenyl)ethylamino]pyrimidine]
[1]
  insecticidal effect (insecticidal rate): 100%
[2]
  nematodecidal effect (nematodecidal rate): 100%
[3]
  insecticidal effect (insecticidal rate): 100%
[4]
  insecticidal effect (insecticidal rate): 100%
[5]
  insecticidal effect (insecticidal rate): 100%
